{"source": "patent US5932618A", "about": "“Anti-viral agents and methods relating to the use thereof” (Signal Pharmaceuticals, Inc., priority 1996, dated 1999)", "key": {"[1]": {"system": "MIEP viral immediate early promoter (MIEP-luc cells)", "test": "Luciferase reporter assay in MIEP-luc cells 48 hours after HCMV infection", "type": "cell-based", "details": "48 hours after infection with 3 pfu/cell HCMV, increasing amounts of compound in DMSO", "protocol": "The MIEP promoter sequence, from position -1145 to +122, was amplified by PCR using plasmid pSE as a template. The primers are: 5'-[…]-3' (sense primer), and 5'[…]-3' (antisense primer). These oligo primers introduced a KpnI restriction site at the 5' and 3' end of MIEP promoter fragment. The KpnI digested PCR fragment was inserted into KpnI digested pGL2-basic luciferase reporter plasmid (Promega, Madison, Wis.). The promoter direction was determined and PCR fidelity of the promoter sequence was confirmed by sequencing.\n(§1) B. Establishment of Stable Cell Lines\n(§2) The HCMV permissive human glioblastoma cell line U373 MG was transfected with the constructs described above. […]\n(§3) Cells were infected with HCMV (Towne strain, obtained from American Type Culture Collection, Rockville, Md.) at 5-10 pfu/cell. […] Plates were read immediately in a Packard TopCount™ (Packard, Hartford, Conn.). Clones showing high luciferase inducibility were further analyzed by PCR to ascertain the integrity of the reporter transcriptional unit integrated into the genomic DNA. […]\n(§4) Cells are maintained in DMEM (Mediatech, Herndon, Va.) supplemented with 10% fetal bovine serum (Gemini Bioproducts, Inc., Calabasas, Calif.), 1% antimycotic/antibiotic (GIBCO, Baltimore, Md.) and 0.6 μg/mL G148 (GIBCO, Baltimore, Md.). […] Luciferase activity (luminescence) in each well is then measured using a Packard Topcount™. […]"}, "[2]": {"system": "β-actin cellular promoter (β-actin-luc cells)", "test": "Luciferase reporter assay in β-actin-luc cells 48 hours after HCMV infection", "type": "cell-based", "details": "48 hours after infection with 3 pfu/cell HCMV, increasing amounts of compound in DMSO", "protocol": "This Example illustrates the use of the cell lines of Example 1 for identifying inhibitors of viral gene expression.\nCells are maintained in DMEM (Mediatech, Herndon, Va.) supplemented with 10% fetal bovine serum (Gemini Bioproducts, Inc., Calabasas, Calif.), 1% antimycotic/antibiotic (GIBCO, Baltimore, Md.) and 0.6 μg/mL G148 (GIBCO, Baltimore, Md.). Cells are seeded at 3×10^4 cells per well in flat-bottom, tissue culture treated 96-well plates (Corning, Corning, N.Y.) and incubated for about 18 hours in a 37° C. humidified environment. Appropriately diluted candidate modulators are then added directly to the media on cells to a final concentration of 10 μg/mL, and the plates incubated for 30 minutes at 37° C. HCMV (Towne strain, ATCC) is then added at 3 pfu/cell. Forty-eight hours post-infection, the cells are washed once with PBS (without Ca^++ and Mg^++) and lysed in the 96-well plate. An aliquot of the cell lysate is then transferred to a black 96-well plate (Packard, Hartford, Conn.) and luciferase assay reagent (Promega, Madison, Wis.) is added to the plate. Luciferase activity (luminescence) in each well is then measured using a Packard Topcount™. […]\nThis Example illustrates anti-viral activity of representative compounds of this invention as determined in accordance with Examples 1-4 above. […]"}, "[3]": {"system": "HCMV pol promoter (pol-luc cells)", "test": "Luciferase reporter assay in pol-luc cells 48 hours after HCMV infection", "type": "cell-based", "details": "48 hours after infection with 3 pfu/cell HCMV, increasing amounts of compound in DMSO", "protocol": "The Pol promoter sequence, from position -425 to +15, was amplified by PCR using cosmid pCM1058 (Peter Ghazal) as template. The primers are: 5'-[…]-3' (sense primer), and 5'-[…]-3' (antisense primer). These oligo primers introduced a HindIII restriction site at the 5' and 3' end of Pol promoter fragment. The HindIII digested PCR fragment was inserted into HindIII digested pGL2-basic luciferase reporter plasmid (Promega, Madison, Wis.). The promoter direction was determined and PCR fidelity of the promoter sequence was confirmed by sequencing.\nas §1, §2, §3, §4"}, "[4]": {"system": "HCMV pp28 promoter (pp28-luc cells)", "test": "Luciferase reporter assay in pp28-luc cells 48 hours after HCMV infection", "type": "cell-based", "details": "48 hours after infection with 3 pfu/cell HCMV, increasing amounts of compound in DMSO", "from_the_text": "The pp28 promoter sequence, from position -609 to +106, was amplified by PCR using cosmid pCM1 (Peter Ghazal, Scripps Research Institute) as a template. The oligonucleotide primer sequences are:\nThese oligonucleotides primers introduced a KpnI restriction site at the 5'-end and a HindIII site at the 3'-end of the pp28 promoter fragment. Unique sites, KpnI and HindIII allowed directional cloning into the pGL2-basic luciferase reporter plasmid (Promega, Madison, Wis.), resulting in the pp28-luc promoter construct shown in FIG. 2. The PCR fidelity of the pp28 promoter sequence was confirmed by sequencing.\nB. Establishment of Stable Cell Lines […]\nas §3, §4"}, "U373 MG cells": {"system": "U373 MG cells", "type": "cell-based, human", "details": "PAA 200-400 μg/ml, MTS cytotoxicity assay, data not shown"}, "[5]": {"system": "HCMV viral DNA replication", "test": "Viral DNA replication determined by dot blot analysis in stable clones", "type": "cell-based, HCMV (Towne strain)", "details": "in presence of PAA (200-400 μg/ml), three different stable clones, data not shown", "protocol": "The response of the integrated reporter plasmids to HCMV infection was also examined in the presence and absence of the well characterized viral DNA inhibitor phosphonoacetic acid (PAA, Sigma, St. Louis, Mo., 99.7 purity). The results are presented in FIG. 7 (P-luc), FIG. 8 (pol-luc) and FIG. 9 (pp28-luc). Cells were seeded into a 96 well plate in G418 selection media. The following day, cells were treated in the absence (lanes 1 and 4, panels B and C) or presence of PAA at 200 μg/mL (lanes 2 and 5, panels B and C) and 400 μg/mL (lanes 3 and 6, panels B and C). Cells were then superinfected with HCMV at 10 pfu/cell. Forty-eight hours post-infection, cells were harvested and isolated for either mRNA preparation, protein lysates or the luciferase assay. Luciferase activity measured as described above is shown in panels A of FIGS. 7-9. Northern analyses were performed on mRNA using probes for luciferase, MIEP-, pol- or pp28-specific mRNA and beta-actin mRNA to quantitate the amount of mRNA in each lane (panels B). Protein lysates were used for western blot analysis using antibody specific against luciferase (panels C). […] Viral DNA replication in presence of PAA was inhibited by nearly 90 percent as determined by dot blot analysis in three different stable clones (data not shown). […]"}}}
{"smiles": "COc1cc([N+](=O)[O-])ccc1NC(=O)c1cc(Cl)c2ccccc2c1O", "note": "[compound (V)]", "values": [{"measurement": "inhibition of reporter gene expressed from the MIEP viral immediate early promoter", "setting": "[1]", "value": "no inhibition"}, {"measurement": "inhibition of reporter gene expressed from the β-actin cellular promoter", "setting": "[2]", "value": "no inhibition"}, {"measurement": "inhibition of luciferase reporter expressed from the HCMV pol promoter", "setting": "[3]", "value": "specific inhibition"}, {"measurement": "inhibition of luciferase reporter expressed from the HCMV pp28 promoter", "setting": "[4]", "value": "specific inhibition"}]}
{"smiles": "O=C(Nc1cccc([N+](=O)[O-])c1)c1cc(Cl)c2ccccc2c1O", "note": "[compound (IV)]", "values": [{"measurement": "inhibition of reporter gene expressed from the MIEP viral immediate early promoter", "setting": "[1]", "value": "no inhibition"}, {"measurement": "inhibition of reporter gene expressed from the β-actin cellular promoter", "setting": "[2]", "value": "no inhibition"}, {"measurement": "inhibition of luciferase reporter expressed from the HCMV pol promoter", "setting": "[3]", "value": "specific inhibition"}, {"measurement": "inhibition of luciferase reporter expressed from the HCMV pp28 promoter", "setting": "[4]", "value": "specific inhibition"}]}
{"smiles": "O=C(O)CP(=O)(O)O", "note": "[PAA, phosphonoacetic acid]", "values": [{"measurement": "toxicity to U373 MG cells", "setting": "U373 MG cells", "value": "not toxic"}, {"measurement": "inhibition of viral DNA replication", "setting": "[5]", "value": "~90", "unit": "%"}]}
